Source: US12174461B2, “Sustained release of oleic acid from contact lenses” (CooperVision International Limited, priority 2022, dated 2024)

What was measured:
[1] = target: T1, recombinant human PLA2G2A (sPLA2-IIA) (Homo sapiens, UniProt P14555); test: sPLA2 digestion assay: oleic acid release from stenfilcon A lenses loaded with phospholipid, in ATF with and without sPLA2 (LCMS); type: biochemical; conditions: 35±2° C., 4 hours; for Oleic acid peak area in ATF (without sPLA2): 4 mm piece of phospholipid-loaded stenfilcon A lens in 100 μL ATF; for Ratio of OA peak area in ATF with and without sPLA2: stenfilcon A lens pieces, 50 ppm sPLA2
T1 construct: purchased Creative BioMart PLA2G2A-669H
T1 sequence (P14555 21-144): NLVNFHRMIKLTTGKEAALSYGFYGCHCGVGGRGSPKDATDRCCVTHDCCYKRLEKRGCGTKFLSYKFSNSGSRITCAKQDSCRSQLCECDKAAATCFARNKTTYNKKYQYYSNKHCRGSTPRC
Procedure: The phospholipids shown in Table 1 were obtain from Avanti Polar Lipids. 3 mg/ml loading solutions of the phospholipids shown in Table 1 were prepared by adding 2.4 mL ethanol to 9 mg of phospholipid, sonicating (up to 15 minutes) then adding 0.6 mL DI water and sonicating again (up to 15 minutes) to dissolve the phospholipid.
Hydrated contact lenses made from stenfilcon A were washed three times in 3 mL purified water for 30 minutes each time. Each washed lens was placed in 3 mL of a phospholipid loading solution and incubated at room temperature with gentle shaking at 75 rpm for 3 hours. The loaded lenses were then rinsed and hydrated in several exchanges of DI water. The lenses were packaged in a buffered saline contact lens packaging solution and autoclaved.
An artificial tear fluid (ATF) was prepared by adding the first three ingredients listed in Table 2 to a clean class vial and then adding 30 mL of the fourth ingredient.
After autoclave each lens was removed from its package and place in a 6 mL glass vial containing 5 mL of the ATF at room temperature on a shaker at 125 rpm overnight to elute any free oleic acid that may be present in the lens.
Each lens was rinsed in a 6 ml glass vial containing a fresh aliquot of 5 mL ATF for 30 minutes prior to running the digestion assay.
A 50 ppm solution of sPLA2 was prepared in ATF by adding 200 μl ATF to a tube containing 10 μg recombinant human PLA2G2A (Creative BioMart, Cat. No. PLA2G2A-669H). The solution is referred to as ATF+sPLA2. Two 4 mm pieces were cut from each lens. One piece of each lens was placed in a tube with 100 μL ATF and the other piece was placed in a tube containing 100 μL ATF+sPLA2. The tubes were incubated at 35±2° C. for 4 hours with no shaking.
50 μl of the release media from each lens at T=4 hr was transferred to HPLC vials and 500 μl isopropanol (IPA) was added and mixed well. T=0 hr HPLC vials were also prepared (50 μl ATF+500 μl IPA). All vials were sonicated for 15 minutes and centrifuged. The supernatant was removed for LCMS injection.
The supernatants were injected on an LCMS instrument equipped with an ACQUITY UPLC BEH C18 […], 2.1 mm×15 cm column and running a mobile phase gradient from 65% A to 90% B at a flow rate of 0.35 mL/min with A=40% acetonitrile in water with 10 mM ammonium acetate and 0.2% (v/v) ammonium hydroxide, and B=10% acetonitrile in IPA with 10 mM ammonium acetate and 0.2% (v/v) ammonium hydroxide. The mass spec detector is run at negative electrospray mode. The peaks for oleic acid (OA) in the supernatants were measured (m/z trace=281.24). The ratio of OA peak area in ATF with and without sPLA2 was calculated.

[2] = Amount of DOPG loaded in stenfilcon A lens, by IPA extraction and LCMS; type: physicochemical; conditions: about 90 minutes
Procedure: 1,2-Dioleoyl-sn-glycero-3-phospho-rac-(1-glycerol) sodium salt (DOPG) from Sigma-Aldrich was dissolved into a 50% by volume ethanol (EtOH) 50% by volume deionized water solution and sonicated until the DOPG was fully dissolved to provide DOPG loading solutions ranging in concentration from 1 mg/ml to 10 mg/ml.
Silicone hydrogel contact lenses were prepared by curing the formulation for stenfilcon A in polypropylene contact lens molds. The cured stenfilcon A was removed from the molds, and each lens was extracted in EtOH to remove unreacted monomer. The lenses were then placed in the DOPG loading solutions for about 90 minutes and then hydrated in several exchanges of DI water. The lenses were packaged in plastic blisters with about 1.2 ml of a packaging solution comprising phosphate buffered saline (PBS) and autoclaved.
The amount of DOPG in each lens was determined by extracting the lens with isopropanol (IPA) and measuring DOPG in the extract by LCMS. Briefly, each lens was removed from its blister pack, lightly blotted to remove excess packaging solution, and placed in a 20 mL glass vial containing 10 mL 100% IPA. The vials were placed on a bench top shaker at 300 rpm overnight (˜16 hours) at room temperature. For stenfilcon A, a single […] extraction step is sufficient to extract substantially all the DOPG from the lense. Silicone hydrogel lens materials that are more hydrophobic may require a second overnight extraction in order to extract all the DOPG, in which case the IPA from the first extraction step is removed and replaced with 3 mL fresh IPA and shaken overnight at 300 rpm at room temperature. The amount of DOPG in the IPA extract from each lens is determined by LCMS compared to a DOPG standard solution.

[3] = tested on: sPLA2 enzymes found in human tears; test: Susceptibility of phospholipid in a silicone hydrogel contact lens body to digestion by tear sPLA2 enzymes; type: biochemical; conditions: phospholipid present in a silicone hydrogel contact lens body
Text: To achieve these and other advantages, and in accordance with the purposes of the present invention, as embodied and broadly described herein, the present invention, in part relates to a hydrogel contact lens comprising a polymeric lens body loaded with 2-oleoyl phospholipid. The 2-oleoyl phospholipid is advantageously susceptible to digestion by secretory phospholipase 2-acylhydrolase (sPLA2) enzymes found in human tears, especially group IIA secretory phospholipase 2-acylhydrolase (sPLA2-IIA). The 2-oleoyl phospholipid present in the contact lens body is advantageously susceptible to digestion by sPLA2 enzymes found in human tears, especially sPLA2-IIA when the 2-oleoyl phospholipid is present in the polymeric lens body of a silicone hydrogel contact lens, such as a stenfilcon A contact lens. […] For the avoidance of doubt, while the determination of whether a 2-oleoyl phospholipid is susceptible to digestion by sPLA2 enzymes may be carried out by loading the 2-oleoyl phospholipid to a stenfilcon A lens, the contact lens of the invention, including contact lenses comprising 2-oleoyl phospholipid that have been determined to be susceptible to digestion by sPLA2 enzymes, need not be stenfilcon A lenses and may be silicone hydrogel lenses of any formulation. […]

SMILES	Oleic acid peak area in ATF (without sPLA2) ([1]; LCMS m/z 281.24)	Ratio of OA peak area in ATF with and without sPLA2 [1]	further results
CCCCCCCC/C=C\CCCCCCCC(=O)OC[C@H](COP(=O)(O)OC[C@H](N)C(=O)O)OC(=O)CCCCCCC/C=C\CCCCCCCC [DOPS, 1,2-dioleoyl-sn-glycero-3-phospho-L-serine]	88		
CCCCCCCC/C=C\CCCCCCCC(=O)OC[C@H](COP(=O)([O-])OCC[N+](C)(C)C)OC(=O)CCCCCCC/C=C\CCCCCCCC [DOPC, 1,2-dioleoyl-sn-glycero-3-phosphocholine, reference compound]	102	1.2	
CCCCCCCC/C=C\CCCCCCCC(=O)OC[C@H](COP(=O)(O)OCC(O)CO)OC(=O)CCCCCCC/C=C\CCCCCCCC (mixture of isomers) [DOPG, 1,2-dioleoyl-sn-glycero-3-phospho-(1′-rac-glycerol)]	36	279	Oleic acid peak area in ATF + sPLA2 ([1]; 4 mm piece of phospholipid-loaded stenfilcon A lens in 100 μL ATF + 50 ppm recombinant human PLA2G2A, LCMS m/z 281.24): 9958; Average amount of DOPG/lens ([2]; DOPG loading concentration 1.0 mg/mL in 50% EtOH/water): 240 µg; Average amount of DOPG/lens ([2]; DOPG loading concentration 2.5 mg/mL in 50% EtOH/water): 495 µg; Average amount of DOPG/lens ([2]; DOPG loading concentration 5.0 mg/mL in 50% EtOH/water): 760 µg; Average amount of DOPG/lens ([2]; DOPG loading concentration 7.5 mg/ml in 50% EtOH/water): 895 µg; Average amount of DOPG/lens ([2]; DOPG loading concentration 10.0 mg/ml in 50% EtOH/water): 975 µg
CCCCCCCCCCCCCC(=O)OC[C@H](COP(=O)([O-])OCC[N+](C)(C)C)OC(=O)CCCCCCCCCCCCC [DMPC, 1,2-dimyristoyl-sn-glycero-3-phosphocholine]			Susceptibility to digestion by sPLA2 enzymes found in human tears [3]: not be susceptible to digestion by sPLA2 enzymes
CCCCCCCC/C=C\CCCCCCCC(=O)OC[C@H](COP(=O)(O)OCCN)OC(=O)CCCCCCC/C=C\CCCCCCCC [DOPE, 1,2-dioleoyl-sn-glycero-3-phosphoethanolamine]	463	4.6	
